The record followed here is patent publication US20170081679A1, “METHODS OF IMPROVING NUCLEASE MEDIATED HOMOLOGOUS RECOMBINATION” (priority 2015, published 2017).

Entries after “also recorded” stand apart in the source; their conditions may differ.

The test system of one series is rabbit embryos. The experiment in a line: Embryo development (blastocyst rate) after microinjection and treatment. The series is classed as cell-based. The settings on record: 20 h; for blastocyst development: control 61.2%. How it is done:
(§1) In one embodiment, we designed sgRNA targeting a ROSA26 like locus (RLL) in the rabbit genome (FIG. 2E). We next determined the effects of SCR7, an NHEJ inhibitor, and RS-1, an HDR enhancer on the knock-in success rates. Donor template DNAs were co-microinjected with Cas9 mRNA and sgRNA for RLL locus. After injection, the embryos were treated for 20 h in a serial concentration of SCR7: 0 μM (control), 20 μM, 40 μM, and 80 μM, or in RS-1 at 0 μM (control), 7.5 μM, and 15 μM.
(§2) In one embodiment, we microinjected 79 embryos with RAD51 mRNA, in addition to sgRNA, Cas9 mRNA and donor DNAs (FIG. 3A). RAD51 recombinase is a key player for homologous recombination and the repair of DNA DSBs (reference 13). Since it has been reported that RS-1 stimulates RAD51 (reference 12), we reasoned that including RAD51 mRNA in the microinjection mix would yield similar improvements on the knock-in efficiency as achieved with RS-1.

Series [1] deals with rabbit embryos (rbApoAI locus). The series can be described thus: TALEN mediated knock-in of hApoAII to rbApoAI locus in embryos in vitro. The series is classed as cell-based. Conditions: RS-1 7.5 μM, control 7%. The text has this:
In another embodiment, we tested the effects of RS-1 in a TALEN mediated knock-in system. We designed and validated TALEN pairs targeting rbApoAI locus for knocking in the hApoAII coding sequence (FIG. 2B).

In the next series the test system is founder rabbits. The experiment in a line: Health and reproduction of founder animals. The format is in vivo. The text has this:
(§3) At the time of submitting this manuscript, five RLL-EGFP founders, three from the RS-1 treatment group, two from the non-treatment group, have reached sexual maturity. We bred these RLL-EGFP founder animals with WT counterparts.
In sum, RS-1 is effective on improving knock-in rates in both the TALEN and the Cas9 mediated genome editing systems.

The test system of series [2] is RLL-EGFP knock-in founder rabbits. The series can be described thus: Germline transmission and allele distribution in embryos parented by RLL-EGFP founders. The format is in vivo, rabbit.
Source text: as §3
To ultimately determine the frequencies of different types of alleles (i.e. WT, indel and knock-in) in the germ cells of knock-in animals, we used WT animals to breed with five RLL knock-in founders, 2 derived without RS-1 treatment and the other 3 with RS-1 treatment. Embryos were produced from founders of the RS-1 treated group (n=72) and the non-treated group (n=66), sequenced, and categorized as WT, indel, or knock-in based on the allele sequence (FIG. 2I). Similar percentage of WT alleles (17 vs. 18%) are found between these two groups. […] It appears that knock-in events take place at the expense of KO because the overall mutation rates (indel+knock-in) were similar between these two groups.

Series [3] deals with rabbit embryos (ROSA26 like locus, RLL). The experiment in a line: Cas9 mediated RLL-EGFP knock-in in rabbit embryos in vitro. The series is classed as cell-based. How it is done: as §1, §2
Series [4] concerns rabbit embryos (CFTR locus). The experiment in a line: Cas9 mediated knock-in of CFTRdelF508 to rabbit CFTR locus in embryos in vitro. The format is cell-based. Conditions: CFTRdelF508, Cas9, RS-1 7.5 μM; control 13%. From the text:
In another embodiment, we tested the effects of RS-1 supplementation on Cas9 mediated knock-in of CFTRdelF508, the most frequent mutation type identified in human cystic fibrosis (CF) patients, to the rabbit CFTR locus (FIG. 4).

The next series has as its system rabbit RLL. The series can be described thus: Cas9 mediated RLL-EGFP knock-in animal production (embryo transfer). Conditions: RS-1 7.5 μM. The format is in vivo. How it is done:
In one embodiment, we used RS-1 at 7.5 μM for the in vivo experiments. The sgRNA and donor DNA were used for knocking in EGFP to the rabbit RLL.
In the control group, we transferred a total of 373 embryos to synchronized recipient rabbits and obtained 43 kits. Twenty-nine of these 43 kits (67%) carried indel alleles but with on knock-in alleles. Three are proven as knock-in founders after PCR and sequencing (FIG. 2A). Of note, these three knock-in founders also carry indel alleles. The overall knock-in efficiency is 0.8% calculated by total knock-in founders/total embryos transferred, or 7.0% calculated by total knock-in founders/total kits born.
In the RS-1 treatment group (FIG. 2A), we transferred 146 embryos and obtained 38 kits, 18 of which carried indel but no knock-in alleles (47%). Similar to the in vitro results, the knock-in success rate was multifold higher than that in the control group. A total of 10 knock-in founders were produced, with the knock-in efficiency of 6.8% calculated by total knock-in founders/total embryos transferred, or 26.3% calculated by total knock-in founders/total kits born.

The subject of another series is rbApoAI locus. The experiment in a line: TALEN mediated hApoAII knock-in animal production (embryo transfer). The series is classed as in vivo, rabbit. The settings on record: RS-1 treatment. The text has this:
In another embodiment, we tested RS-1 on the TALEN system in vivo. The same TALEN pairs and donor DNAs used in the in vitro work were used to product hApoAII knock-in animals.
Without RS-1 treatment, only one founder animal was produced out of 227 embryos transferred (FIG. 2A). The knock-in efficiency was 0.4% calculated by total knock-in founders/total embryos transferred or 6.3% calculated by total knock-in founders/total kits born.
After RS-1 treatment, we transferred a total of 145 embryos and obtained 17 kits. Seven out of 17 kits carried indel but no knock-in alleles (41%).

As to `O=C(Nc1ccc(Br)cc1)c1ccc(Br)c(S(=O)(=O)NCc2ccccc2)c1` [RS-1], the blastocyst development is given as 57.6% in the series on rabbit embryos (RS-1 7.5 μM) and 82.2% in the series on rabbit embryos (RS-1 15 μM). Moreover, the entries for the “percentage of embryos carrying knock-in alleles” value in series [1] and in series [4] were 15% and 30%, respectively. For the same compound, the “abnormalities in founder animals” value in the series with founder rabbits (RLL-EGFP and hApoAII founders derived from RS-1 treatment) was “No abnormalities”. Also, the “toxic effects on overall animal health and reproduction” value in the series on founder rabbits (RS-1 treatment of embryos) is on record as “does not appear to have any toxic effects”. The “percentage of WT alleles” value in series [2] (embryos (n=72) parented by founders of RS-1 treated group, other group 18%) worked out at 17%. The “embryos carrying the knock-in allele (knock-in frequency at allele level)” value in series [2] (embryos (n=72) parented by founders of RS-1 treatment group bred with WT, non-treated 14%) worked out at 33%. Further, the “germline transmitting founder animals” value in series [2] (three animals of RS-1 treatment group, non-treatment 50%) was 100%. Also, in series [3] (RS-1 7.5 μM, 20 h, control 4.8%), the knock-in rate is given as 26.1%. For the same compound, in series [3] (RS-1 15 μM, 20 h, control 4.8%), the knock-in efficiency was 5.4%. Further, the “increase of knock-in efficiency” value in series [3] (RS-1 at optimal concentration 7.5 μM, different loci (RLL, ApoAI, CFTR), in vitro) was 2- to 5 fold. Besides, the “kits carrying indel but no knock-in alleles” value in the series with rabbit RLL (18 of 38 kits, control 67%) is reported as 47%; in the series with rbApoAI locus (7 of 17 kits), 41%. Further, the “knock-in efficiency, total knock-in founders/total embryos transferred” value was 6.8% with rabbit RLL (Cas9, control 0.8%) and 2.1% in the series with rbApoAI locus (control 0.4%). Also, the “knock-in efficiency, total knock-in founders/total kits born” value was 26.3% with rabbit RLL (Cas9, control 7.0%) and 17.6% in the series with rbApoAI locus (control 6.3%).

For the compound `O=c1[nH]c(=S)[nH]c(N=Cc2ccccc2)c1N=Cc1ccccc1` [SCR7], the “effect on embryo development” value in the series on rabbit embryos (SCR7 20, 40, 80 μM, judged by blastocyst rates) is on record as “no effects on embryo development”. Further, the blastocyst rate in the series on rabbit embryos (SCR7 treatment conditions (up to 80 μM)) is reported as 62-72%. Also, in series [3] (SCR7 20, 40, 80 μM for 20 h vs control), the “effect on overall knock-in efficiency” value is given as “minimal effects; also recorded: no significant effects”. Further, in series [3] (SCR7 treatment groups 20-80 μM, 20 h, control 7.1%), the overall knock-in efficiency is 7.7-9.4%.
